Measurements from US20060148896A1, “Use of an alkanoyl L-carnitine for the preparation of a medication to treat anhedonia” (Sigma-Tau Industrie Farmaceutiche Riunite S.p.A., priority 2001, published 2006).

Columns and labels:
Format in all cases: in vivo, rat
[1] = system: rats exposed to chronic stress; assay: Escape test in rats exposed to unavoidable/chronic stress; conditions: for N0 of escapes After 8 days / N0 of escapes After stress + 3-week VAB training: ALCAR 10 mg/kg IP; for N0 of escapes After 8 days: BID or IMI 5 mg/kg BID plus chronic stress for 8 days; for N0 of escapes After stress + 3-week VAB training: BID or IMI 5 mg/kg BID, 8 days plus 3 weeks with stress on alternate days; for escape deficit induced by chronic stress: second experiment, end of 3-week training
Procedure: c) Stress: 10 rats were treated with physiological solution (1 ml/kg IP, BID) for 14 days. Then, the animals were exposed to the sequence of pre-test [with the pre-test, the animals were exposed to both unavoidable stress (electric shocks) of minimum intensity and duration, capable to induce a reliable modification of behaviour. Brain. Res. Protocols 7(1):11-20; 2001]; escape test [(also defined as “test”) carried out 24 hours after the pre-test, to assess the induced behaviour modification (Brain. Res. Protocols 7(1):11-20; 2001)]; Y- maze training and exposure to the chronic stress procedure on alternate days (maze one day, and stress the next day) for three weeks (Brain. Res. Protocols 7(1): 11-20; 2001), while continuing treatment with physiological solution;
d) acetyl L-carnitine+Stress: 10 rats were treated with acetyl L-carnitine (10 mg/kg, IP, BID) for 14 days. Then, animals were exposed to the sequence of: -pre-test; -test; -Y-maze training and simultaneously exposed to the chronic stress procedure on alternate days (maze one day, and stress the next day) for three weeks, while continuing treatment with acetyl L-camitine.
At the end of the VAB training, all the animals exposed to stress underwent the escape test (Brain. Res. Protocols 7(1):11-20; 2001).
(§1) f) Stress+VAB: the animals were exposed to the pre-test. Twenty-four hours later they were subjected to the escape test, and then exposed to the chronic stress procedure for 7 days. On day 9, they started their training in the Y-maze while exposed to stress on alternate days;
(§2) g) acetyl L-carnitine+Stress+VAB: the animals were exposed to the pre-test. Twenty-four hours later they underwent the escape test. Then, they were exposed to the protocol of chronic stress for 7 days, while receiving acetyl L-carnitine 10 mg/kg IP, BID for 8 days. On day 9, the rats started their VAB training in the Y-maze and exposure to stress on alternate days, while continuing treatment with the acetyl L-carnitine for 3 weeks;
(§3) h) IMI+Stress+VAB: the animals were exposed to the pre-test. Twenty-four hours later, they underwent the escape test, and then they were exposed to the chronic stress protocol for 7 days while receiving imipramine 5 mg/kg IP, BID for 8 days. On day 9, the rats started their training in the Y-maze and exposure to stress on alternate days, while continuing with IMI for 3 weeks.
At the end of the training period, all the animals underwent the escape test.

[2] = system: rats exposed to chronic stress; assay: Acquisition of vanilla sugar-sustained appetitive behaviour (VAB) in the Y-maze during chronic stress; conditions: for No. of correct choices: rats, ALCAR 10 mg/kg IP, BID or IMI 5 mg/kg BID started after pre-test, chronic stress 8 days, then 3-week Y-maze training with stress on alternate days, mean ± standard error; for protection from negative effect of chronic stress on VAB acquisition: second experiment: chronic administration during exposure to stress and training in the Y-maze
Source text: The anhedonia model is based on the observation that the fact of being exposed to a repeated unavoidable stress prevents the development of an appetitive behaviour induced and maintained by a highly palatable food (vanilla sugar) in rats fed ad libitum (Behav. Pharmacol. 8:619-628, 1997). […]
The Y-maze was made up of three wings. The vanilla sugar for the acquisition of the appetitive behaviour was in one of the two diverging wings (VAB training, 3 weeks).
e) VAB: the physiological solution was administered to the animals (1 ml/kg IP, BID) for 8 days, and then the rats were trained in the Y-maze for VAB acquisition while continuing the treatment with physiological solution for 3 weeks;
as §1, §2, §3

[3] = system: dopamine in the nucleus accumbens (Nacs); assay: Microdialysis of extraneuronal dopamine in the nucleus accumbens after VAB training (Example 1); conditions: rats trained in the Y-maze during chronic stress exposure and treated; for dopamine in the Nacs after the acute administration of cocaine vs control animals (FIGS. 3 and 4): cocaine 5 mg/kg IP
Procedure: Two days later, animals were implanted with microdialysis probes into the nucleus accumbens (Nacs) (Brain. Res. Protocols 5(1):16-24: 2000) and underwent dialysis on the next day.
Once the dopamine basal level had been reached, the rats were administered a single dose of cocaine 5 mg/kg IP in 0.1 ml volume of water, and dialysed within the next 60 minutes.

[4] = system: dopamine in the nucleus accumbens (Nacs); assay: Microdialysis of dopamine in the Nacs after 7-day stress: basal, vanilla sugar meals, cocaine (Example 2); conditions: for Dopamine (max percentage increase) Meal 1 / Dopamine (max percentage increase) Meal 2: mean ± standard error of 10; for protection from the neurochemical effects resulting from a repeated exposure to stress: Example 2, IMI 5 mg/kg IP BID or FLX 5 mg/kg IP/die for 8 days with 7-day stress
Procedure: Sixty rats were divided in 6 groups of 10 animals each, as follows:
a) Control (Crt): the animals were administered physiological solution 1 ml/kg IP, BID for 8 days;
b) acetyl L-carnitine: the animals were administered acetyl L-carnitine 10 mg/kg IP, BID for 8 days;
c) Stress: the animals were exposed to the pre-test, they were tested for escape 24 hours later, and then they were exposed to the chronic stress protocol for 7 days, while receiving physiological solution (for 8 days);
d) acetyl L-carnitine+Stress: the animals were exposed to the pre-test, they were tested for escape 24 hours later, and then they were exposed to the chronic stress protocol for 7 days, while receiving acetyl L-carnitine 10 mg/kg IP, BID, for 8 days;
e) IMI+Stress: the animals were exposed to the pre-test, they were tested for escape 24 hours later, and then they were exposed to the chronic stress protocol for 7 days, while receiving IMI 5 mg/kg IP, BID for 8 days;
f) FLX+Stress: the animals were exposed to the pre-test, they were tested for escape 24 hours later, and then they were exposed to the chronic stress protocol for 7 days, while receiving FLX 5 mg/kg IP/die for 8 days.
On day 9, all the animals were implanted with dialysis probes in the Nacs; on day 10, the animals were dialysed.
The basal levels of dopamine were determined over 60 minutes.
At this point, the rats were offered 5 vanilla sugar pellets (Meal 1); 4 samples of dialysis fluid were taken over the next 60 minutes.
The rats were offered vanilla sugar one more time (Meal 2), and samples of dialysis fluid were taken over 60 minutes.
Finally, the rats were injected with cocaine 5 mg/kg IP, 0.1 ml in water and samples of dialysis fluid were taken over 60 minutes.

[5] = rats exposed to chronic stress for 7 days during ALCAR 10 mg/kg IP BID, IMI 5 mg/kg IP BID or FLX 5 mg/kg IP/die, 8 days, Nacs

Structure (SMILES) | N0 of escapes After 8 days ([1]; rats, mean ± standard error) | N0 of escapes After stress + 3-week VAB training ([1]; rats, mean ± standard error) | No. of escapes 24 hours after the pre-test ([1]; rats, acetyl L-carnitine 10 mg/kg IP, BID for 14 days before pre-test, mean ± standard error) | No. of escapes After training for VAB and exposure to stress ([1]; rats, acetyl L-carnitine 10 mg/kg IP, BID, 14-day pre-treatment continued during 3-week VAB training and chronic stress, mean ± standard error) | escape deficit induced by chronic stress [1] | negative effect of chronic stress on VAB acquisition (FIGS. 1 and 2) ([2]; first experiment: 14-day pre-treatment 10 mg/kg IP BID, continued throughout training with chronic stress) | No. of correct choices [2] | protection from negative effect of chronic stress on VAB acquisition [2] | basal levels of extraneuronal dopamine in the Nacs vs control animals (FIGS. 3 and 4) [3] | dopamine output levels in the Nacs vs control group [3] | dopamine in the Nacs after the acute administration of cocaine vs control animals (FIGS. 3 and 4) [3] | basal levels of dopamine in the Nacs vs control rats (FIGS. 5 and 6) ([4]; Example 2, 8-day treatment) | increase of dopamine in the Nacs after the acute administration of cocaine vs control rats ([4]; Example 2, 8-day treatment, cocaine 5 mg/kg IP) | Dopamine (max percentage increase) Meal 1 [4, 5] [%] | Dopamine (max percentage increase) Meal 2 [4, 5] [%] | increase in the output of dopamine after two consecutive vanilla sugar meals ([4]; rats exposed to stress and treated with acetyl L-carnitine, Nacs) | Dopamine (max percentage increase) Meal 1 ([4]; rats not exposed to stress, acetyl L-carnitine 10 mg/kg IP, BID 8 days, Nacs dialysate after first vanilla sugar meal) [%] | Dopamine (max percentage increase) Meal 2 ([4]; rats not exposed to stress, acetyl L-carnitine 10 mg/kg IP, BID 8 days, Nacs dialysate after second vanilla sugar meal) [%] | protection from the neurochemical effects resulting from a repeated exposure to stress [4]
CC(=O)O[C@H](CC(=O)[O-])C[N+](C)(C)C [ALCAR, acetyl L-carnitine] | 1.0 ± 0.5 | 22.4 ± 2.8 | 25.8 ± 2.5 | 26.4 ± 2.9 | completely reversed | prevented such negative effect from occurring | 7.6 ± 0.5 | fully protected the rats from negative effect of chronic stress on VAB acquisition | significantly higher | superimposable to those observed in the control group | significantly higher | significantly higher | significantly higher | 286.4 ± 16.4 | 276.7 ± 18.6 | approx 300% | 35.7 ± 1.8 | 6.8 ± 5.1 | 
CN(C)CCCN1c2ccccc2CCc2ccccc21 [IMI, imipramine, reference compound] | 2.5 ± 1.1 | 24.8 ± 1.0 |  |  | completely reversed |  | 2.9 ± 1.2 | protected the rats from the negative effect of chronic stress on VAB acquisition | significantly lower |  | significantly lower |  |  | 3.3 ± 2.3 | 4.1 ± 3.5 |  |  |  | Neither the treatment with IMI nor the treatment with FLX were capable to protect
CNCCC(Oc1ccc(C(F)(F)F)cc1)c1ccccc1 (stereo not shown) [FLX, fluoxetine, reference compound] |  |  |  |  |  |  |  |  |  |  |  |  |  | 4.6 ± 4.2 | 3.6 ± 4.0 |  |  |  | Neither the treatment with IMI nor the treatment with FLX were capable to protect
